Read-outs that look alike come from different tables or passages of the source.
Key:
[1] = system: E. cloacae spp. cloacae ATCC 13047; assay: MIC broth microdilution, E. cloacae; assay type: cell-based, Enterobacter cloacae; conditions: Enterobacter cloacae, ATCC13047, read-out: MIC E. cloacae spp. cloacae ATCC #
[2] = system: E. coli MG1655 GyrB R136C; assay: microbe, parasite or virus in culture; assay type: cell-based, Escherichia coli; conditions: for MIC: Escherichia coli, MG1655, read-out: Minimum Inhibitory Concentration E. coli MG# GyrB R#C; for Minimum Inhibitory Concentration E. coli MG1655 GyrB R136C: in the presence of 50 µg/mL PAβN
Text: (§1) E. coli MG1655 originated from the laboratory collection of Dr. Csaba Pál. […] E. coli K-12 BW25113 single-gene knockout mutant lines ΔdapF, ΔmrcB, ΔsurA, ΔacrB and ΔtolC originated form the Keio collection copy owned by the laboratory of Dr. Csaba Pál.
(§2) Cation-adjusted Mueller Hinton II broth (MHBII) was used for growth of the bacteria under standard laboratory conditions, for antimicrobial susceptibility tests, and for selection of resistant variants. To prepare the MHBII broth, 22 g MHBII powder (containing 3 g beef extract, 17.5 g acid hydrolysate of casein, 1.5 g starch; Becton, Dickinson and Co., Franklin Lakes, NJ, USA) was dissolved in 1 L water. MHBII agar was prepared by addition of 14 g agar (Bacto; Molar Chemicals, Halásztelek, Hungary) to 1 L broth.
(§3) Minimum inhibitory concentrations (MICs) were determined using a standard serial broth microdilution technique, according to the Clinical and Laboratory Standards Institute guidelines. […] For Enterococcus sp., the cells were plated in BHI agar plates, and BHI broth was used to determine the MICs. […] Following the dilutions, each well was seeded with 5 × 10^4 bacterial cells. Each measurement was performed in three parallel replicates, and to avoid possible edge effects in the microwell plates, the outside rows (A, H) were filled with sterile medium. Following the inoculations, the plates were covered with the lids and wrapped in polyethylene plastic bags, to minimize evaporation but to allow O2 transfer. […] After incubation, the OD600 of each well was measured using a microplate reader (Synergy 2; Biotek, Winooski, VT, USA).
(§4) These mutated amino acids are the most common sites for target-based resistance in E. coli.

[3] = system: E. coli MG1655 GyrA S83L, D87N ParC S80I, E84G; assay: microbe, parasite or virus in culture; assay type: cell-based, Escherichia coli; conditions: for MIC: Escherichia coli, MG1655, read-out: Minimum Inhibitory Concentration E. coli MG# GyrA S83L, D87N ParC S80I, E84G; for Minimum Inhibitory Concentration E. coli MG1655 GyrA S83L, D87N ParC S80I, E84G: in the presence of 50 µg/mL PAβN
Text: as §1, §2, §3, §4

E. coli BW25113 WT = assay: MIC, E. coli BW25113 wild-type; assay type: cell-based; conditions: Escherichia coli, BW25113, read-out: Minimum Inhibitory Concentration E. coli BW# WT
Text: as §1, §2, §3

E. coli topoisomerase IV = molecular target: T1, E. coli topoisomerase IV (Escherichia coli, UniProt P0AFI2+P20083); assay: E. coli topoisomerase IV relaxation assay; assay type: biochemical; conditions: for Inhibition of topoisomerase IV (in words): relaxation assay
T1 construct: purchased Inspiralis, Norwich, UK
Method: (§5) The assay for determination of the IC50 values was performed according to previously reported procedures.
(§6) Briefly, inhibitory activities were determined using supercoiling (for DNA gyrase) and relaxation (for topoisomerase IV) assay kits (Inspiralis, Norwich, UK) on streptavidin-coated 96-well microtiter plates from Thermo Scientific Pierce (Thermo Fisher Scientific, Waltham, MA, USA). First, the plates were rehydrated with Wash Buffer and the biotinylated oligonucleotide TFO1 was then immobilized. After washing off the unbound oligonucleotide with Wash Buffer, the enzyme assay was performed. Into each well was added 24 µL of mixture containing 6 µL of Assay Buffer (containing ATP), 0.75 µL of relaxed (for E. coli DNA gyrase supercoiling assay) or supercoiled (for E. coli topoisomerase IV relaxation assay) pNO1 plasmid and 17.25 µL of water. Additionally, 3 µL of a solution of the inhibitor in 10% DMSO containing 0.008% Tween 20 and 3 µL of enzyme (1.5 U) in Dilution Buffer were also added to the wells. […] The TF buffer was added to terminate the enzymatic reaction and after additional incubation for 30 min at room temperature, which allowed for triplex formation (biotin–oligonucleotide–plasmid), the unbound plasmid was washed off using TF buffer. Promega Diamond dye in T10 buffer was then added. […] Here, the compounds were diluted using 2-fold serial dilution steps of the given compound. GraphPad Prism 6.0 software was used to calculate the IC50 values, which were determined in at least two independent measurements, and their means are given as the final result. […] Dose-response curves can be found in Supplementary Materials.

E. coli BW25113 ΔmrcB = assay type: cell-based, Escherichia coli
Text: as §1, §2, §3

E. coli BW25113 ΔtolC = assay type: cell-based, Escherichia coli
Text: as §1, §2, §3

E. coli BW25113 ΔsurA = assay type: cell-based, Escherichia coli
Text: as §1, §2, §3

E. coli BW25113 ΔacrB = assay type: cell-based, Escherichia coli
Text: as §1, §2, §3

E. coli BW25113 ΔdapF = assay type: cell-based, Escherichia coli
Text: as §1, §2, §3

E. coli MG1655 WT = assay: MIC, E. coli MG1655 wild-type with PAβN; assay type: cell-based, Escherichia coli; conditions: for MIC: Escherichia coli, MG1655, read-out: Minimum Inhibitory Concentration E. coli MG# WT, 50 µg/mL PAβN, molar conversion in parentheses; for Minimum Inhibitory Concentration E. coli MG1655 WT: in the presence of 50 µg/mL PAβN
Text: as §1, §2
as §3, with “USA). […]” for “USA).”

P. aeruginosa ATCC 27863 = assay: MIC broth microdilution, P. aeruginosa; assay type: cell-based; conditions: Pseudomonas aeruginosa
Text: as §1, §2, §3

E. coli ATCC 25922 = assay: MIC broth microdilution, E. coli ATCC 25922; assay type: cell-based; conditions: Escherichia coli, ATCC25922, read-out: MIC E. coli ATCC #
Text: as §1, §2, §3

A. baumannii ATCC 17978 = assay: MIC broth microdilution, A. baumannii; assay type: cell-based; conditions: Acinetobacter baumannii, ATCC17978, read-out: MIC A. baumannii ATCC #
Text: as §1, §2, §3

K. pneumoniae ATCC 10031 = assay: MIC broth microdilution, K. pneumoniae; assay type: cell-based; conditions: Klebsiella pneumoniae, ATCC10031, read-out: MIC K. pneumoniae ATCC #
Text: as §1, §2, §3

E. coli DNA gyrase = molecular target: T2, E. coli DNA gyrase (Escherichia coli, UniProt P0AES4+P0AES6); assay: E. coli DNA gyrase supercoiling assay; assay type: biochemical
T2 construct: purchased Inspiralis, Norwich, UK
Method: as §5, §6

[4] = molar conversion in parentheses
[5] = ATCC27863, 18 h, read-out: MIC P. aeruginosa ATCC #
[6] = ATCC27863, read-out: MIC P. aeruginosa ATCC #, molar conversion in parentheses, read-out: MIC P. aeruginosa ATCC 27863

Row | Compound | MIC ([1]; broth microdilution, 18 h) | MIC [1, 4] | MIC [2] | Minimum Inhibitory Concentration E. coli MG1655 GyrB R136C [2] | MIC [3] | Minimum Inhibitory Concentration E. coli MG1655 GyrA S83L, D87N ParC S80I, E84G [3] | MIC (E. coli BW25113 WT; [4]) | MIC (E. coli BW25113 WT; wild-type) | IC50 (E. coli topoisomerase IV) | Inhibition of topoisomerase IV (in words) (E. coli topoisomerase IV) | Minimum Inhibitory Concentration E. coli BW25113 ΔmrcB (E. coli BW25113 ΔmrcB; impaired cell-wall mutant) | Minimum Inhibitory Concentration E. coli BW25113 ΔmrcB (E. coli BW25113 ΔmrcB; [4]) | Minimum Inhibitory Concentration E. coli BW25113 ΔtolC (E. coli BW25113 ΔtolC; efflux pump mutant) | Minimum Inhibitory Concentration E. coli BW25113 ΔtolC (E. coli BW25113 ΔtolC; [4]) | Minimum Inhibitory Concentration E. coli BW25113 ΔsurA (E. coli BW25113 ΔsurA; impaired cell-wall mutant) | Minimum Inhibitory Concentration E. coli BW25113 ΔsurA (E. coli BW25113 ΔsurA; [4]) | Minimum Inhibitory Concentration E. coli BW25113 ΔacrB (E. coli BW25113 ΔacrB; efflux pump mutant) | Minimum Inhibitory Concentration E. coli BW25113 ΔacrB (E. coli BW25113 ΔacrB; [4]) | Minimum Inhibitory Concentration E. coli BW25113 ΔdapF (E. coli BW25113 ΔdapF; impaired cell-wall mutant) | Minimum Inhibitory Concentration E. coli BW25113 ΔdapF (E. coli BW25113 ΔdapF; [4]) | further results
1 | Cc1[nH]c(C(=O)Nc2nc3c(OCc4ccccc4)cc(C(=O)N4CCN(c5cc6c(cc5F)c(=O)c(C(=O)O)cn6C5CC5)CC4)cc3s2)c(Cl)c1Cl [Compound 3b, 7-(4-(4-(Benzyloxy)-2-(3,4-dichloro-5-methyl-1H-pyrrole-2-carboxamido)benzo[d]thiazole-6-carbonyl)piperazin-1-yl)-1-cyclopropyl-6-fluoro-4-oxo-1,4-dihydroquinoline-3-carboxylic acid] | > 64 µg/mL | > 81 µM | 40.5 µM | 32 µg/mL | > 81 µM | >64 µg/mL | > 81 µM | > 64 µg/mL | > 10 µM | lack of activity | >64 µg/mL | (>81.0 µM) | 16 µg/mL | (20.3 µM) | >64 µg/mL | (>81.0 µM) | >64 µg/mL | (>81.0 µM) | >64 µg/mL | (>81.0 µM) | MIC (E. coli MG1655 WT): 81 µM; Minimum Inhibitory Concentration E. coli MG1655 WT (E. coli MG1655 WT): 64 µg/mL; MIC (P. aeruginosa ATCC 27863; [5]): > 64 µg/mL; MIC (P. aeruginosa ATCC 27863; [6]): > 81 µM; MIC (E. coli ATCC 25922; broth microdilution, 18 h): > 64 µg/mL; MIC (E. coli ATCC 25922; [4]): > 81 µM; melting point: > 300 °C; MIC (A. baumannii ATCC 17978; broth microdilution, 18 h): > 64 µg/mL; MIC (A. baumannii ATCC 17978; [4]): > 81 µM; MIC (K. pneumoniae ATCC 10031; broth microdilution, 18 h): > 64 µg/mL; MIC (K. pneumoniae ATCC 10031; [4]): > 81 µM; IC50 (E. coli DNA gyrase): 3.3 ± 1.5 µM
2 | Cc1[nH]c(C(=O)Nc2nc3ccc(C(=O)NCCC(=O)N4CCN(c5cc6c(cc5F)c(=O)c(C(=O)O)cn6C5CC5)CC4)cc3s2)c(Cl)c1Cl [Compound 7b, 1-Cyclopropyl-7-(4-(3-(2-(3,4-dichloro-5-methyl-1H-pyrrole-2-carboxamido)benzo[d]thiazole-6-carboxamido)propanoyl)piperazin-1-yl)-6-fluoro-4-oxo-1,4-dihydroquinoline-3-carboxylic acid] | > 64 µg/mL | > 84.8 µM | 1.32 µM | 1 µg/mL | 1.32 µM | 1 µg/mL | > 84.8 µM | > 64 µg/mL | 3.1 µM | low micromolar | >64 µg/mL | (>84.8 µM) | 2 µg/mL | (2.65 µM) | >64 µg/mL | (>84.8 µM) | >64 µg/mL | (>84.8 µM) | >64 µg/mL | (>84.8 µM) | MIC change, ΔtolC mutant versus wild-type E. coli BW25113 (E. coli BW25113 ΔtolC; improvement of MIC in impaired efflux pump mutant): above 32 fold; MIC (E. coli MG1655 WT): 1.32 µM; Minimum Inhibitory Concentration E. coli MG1655 WT (E. coli MG1655 WT): 1 µg/mL; MIC (P. aeruginosa ATCC 27863; [5]): > 64 µg/mL; MIC (P. aeruginosa ATCC 27863; [6]): > 84.8 µM; MIC (E. coli ATCC 25922; broth microdilution, 18 h): > 64 µg/mL; MIC (E. coli ATCC 25922; [4]): > 84.8 µM; MIC (A. baumannii ATCC 17978; broth microdilution, 18 h): > 64 µg/mL; MIC (A. baumannii ATCC 17978; [4]): > 84.8 µM; MIC (K. pneumoniae ATCC 10031; broth microdilution, 18 h): 8 µg/mL; MIC (K. pneumoniae ATCC 10031; [4]): 10.6 µM; IC50 (E. coli DNA gyrase): 0.13 ± 0.01 µM

— paper PMC7822030, “Hybrid Inhibitors of DNA Gyrase A and B: Design, Synthesis and Evaluation” (Pharmaceutics, 2020)
